From US10336762B2 (priority 2017, dated 2019)
Where two headings read alike, the source gives them in different places.

Assays:
IRAK4 enzyme = IRAK4 enzyme (Homo sapiens (Human), UniProt Q9NWZ3); assay: biochemical; assay type: biochemical; details: IRAK4 enzyme, 500 μM ATP
TNFα = assay: cells; assay type: cell-based, human; details: Homo sapiens, Monocyte, LPS-stimulated human monocytes, read-out: EC50 TNF

Sequence of IRAK4 enzyme (Q9NWZ3 whole entry): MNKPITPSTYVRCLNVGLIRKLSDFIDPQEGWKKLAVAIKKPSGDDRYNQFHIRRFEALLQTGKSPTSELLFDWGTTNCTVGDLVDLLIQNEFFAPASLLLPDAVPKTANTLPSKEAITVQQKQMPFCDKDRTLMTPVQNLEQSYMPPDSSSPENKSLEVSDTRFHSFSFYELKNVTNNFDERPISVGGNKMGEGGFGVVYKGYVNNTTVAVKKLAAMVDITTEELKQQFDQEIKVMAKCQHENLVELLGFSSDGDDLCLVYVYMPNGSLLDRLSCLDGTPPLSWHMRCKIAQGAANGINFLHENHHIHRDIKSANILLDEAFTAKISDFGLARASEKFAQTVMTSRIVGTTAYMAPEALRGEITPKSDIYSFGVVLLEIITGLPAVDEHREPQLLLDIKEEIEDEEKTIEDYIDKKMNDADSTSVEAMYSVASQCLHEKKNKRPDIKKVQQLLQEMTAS

| Structure (SMILES) | IC50 (IRAK4 enzyme; TR-FRET) | EC50 (TNFα; TNFα by TR-FRET) | IC50 (IRAK4 enzyme; TR-FRET (HTRF)) | EC50 (TNFα; TNFα content) |
| --- | --- | --- | --- | --- |
| COC(=O)N1CC(CNc2cc(-c3ccc4cc(C#N)cnn34)ncc2C(=O)NC[C@@H](F)C(C)(C)O)C1 [Example 906, (R)-methyl 3-(((2-(3-cyanopyrrolo[1,2-b]pyridazin-7-yl)-5-((2-fluoro-3-hydroxy-3-methylbutyl)carbamoyl)pyridin-4-yl)amino)methyl) azetidine-1-carboxylate] | 10 nM | 186 nM |  |  |
| CC(C)(O)[C@H](F)CNC(=O)c1cnc(-c2ccc3cc(C#N)cnn23)cc1Nc1ncc(F)cn1 [Example 584, (R)-6-(3-cyanopyrrolo[1,2-b]pyridazin-7-yl)-N-(2-fluoro-3-hydroxy-3-methylbutyl)-4-((5-fluoro-pyrimidin-2-yl)amino)nicotinamide] |  |  | 4 nM | 274 nM |
| CC(C)(O)[C@H](F)CNC(=O)c1cnc(-c2ccc3cc(C#N)cnn23)cc1-c1ccc2cc(C#N)cnn12 [Example 693, (R)-4,6-bis(3-cyano-pyrrolo[1,2-b]pyridazin-7-yl)-N-(2-fluoro-3-hydroxy-3-methylbutyl)nicotinamide] |  |  | 35 nM | 821 nM |
| Cn1ccc(Nc2cc(-c3ccc4cc(C#N)cnn34)ncc2C(=O)NC[C@@H](F)C(C)(C)O)n1 [Example 371, (R)-6-(3-cyanopyrrolo[1,2-b]pyridazin-7-yl)-N-(2-fluoro-3-hydroxy-3-methylbutyl)-4-((1-methyl-1H-pyrazol-3-yl)amino)nicotinamide] | < 1 nM |  |  | 61 nM |
| CC(C)(O)[C@H](F)CNC(=O)c1cnc(-c2ccc3cc(C#N)cnn23)cc1Nc1cnc(N2CC3(CCOCC3)C2)nc1 [Example 689, (R)-4-((2-(7-oxa-2-azaspiro[3.5]nonan-2-yl)pyrimidin-5-yl)amino)-6-(3-cyanopyrrolo[1,2-b]pyridazin-7-yl)-N-(2-fluoro-3-hydroxy-3-methylbutyl)nicotinamide] |  |  | 1 nM | 180 nM |
| CN(C)c1ncc(Nc2cc(-c3ccc4cc(C#N)cnn34)ncc2C(=O)NC[C@@H](F)C(C)(C)O)cn1 [Example 669, (R)-6-(3-cyanopyrrolo[1,2-b]pyridazin-7-yl)-4-((2-(dimethylamino)pyrimidin-5-yl)amino)-N-(2-fluoro-3-hydroxy-3-methylbutyl) nicotinamide] |  |  | < 1 nM | 4 nM |
| Cc1cc(Nc2cc(-c3ccc4cc(C#N)cnn34)ncc2C(=O)NC[C@@H](F)C(C)(C)O)ccc1C#N [Example 583, (R)-4-((4-cyano-3-methylphenyl)amino)-6-(3-cyanopyrrolo[1,2-b]pyridazin-7-yl)-N-(2-fluoro-3-hydroxy-3-methylbutyl)nicotinamide] |  |  | 2 nM | 140 nM |
| CC(C)(O)[C@H](F)CNC(=O)c1cnc(-c2ccc3cc(C#N)cnn23)cc1Nc1ccc(CN2CC(F)(F)C2)cc1 [Example 205, (R)-6-(3-cyanopyrrolo[1,2-b]pyridazin-7-yl)-4-((4-((3,3-difluoroazetidin-1-yl)methyl)phenyl)amino)-N-(2-fluoro-3-hydroxy-3-methylbutyl) nicotinamide] | 1 nM |  |  | 115 nM |
| CC(C)Nc1cc(-c2ccc3cc(C#N)cnn23)ncc1C(=O)NCC(=O)N1CC(F)(F)C1 [Example 807, 6-(3-cyanopyrrolo[1,2-b]pyridazin-7-yl)-N-(2-(3,3-difluoroazetidin-1-yl)-2-oxoethyl)-4-(isopropylamino) nicotinamide] | 2 nM | 75 nM |  |  |
| CC(C)(O)[C@H](F)CNC(=O)c1cnc(-c2ccc3cc(C#N)cnn23)cc1NCC1CN(CC(F)(F)F)C1 [Example 907, (R)-6-(3-cyanopyrrolo[1,2-b]pyridazin-7-yl)-N-(2-fluoro-3-hydroxy-3-methylbutyl)-4-(((1-(2,2,2-trifluoroethyl)azetidin-3-yl)methyl)amino) nicotinamide] | 10 nM | 91 nM |  |  |
| CC(C)(O)[C@H](F)CNC(=O)c1cnc(-c2ccc3cc(C#N)cnn23)cc1Nc1ccc(N2CC3CC(C2)O3)nc1 [Example 922, 4-((6-(6-oxa-3-azabicyclo[3.1.1]heptan-3-yl)pyridin-3-yl)amino)-6-(3-cyanopyrrolo[1,2-b]pyridazin-7-yl)-N-((R)-2-fluoro-3-hydroxy-3-methylbutyl)nicotinamide] | < 1 nM | 42 nM |  |  |
| CC(C)(O)[C@H](F)CNC(=O)c1cnc(-c2ccc3cc(C#N)cnn23)cc1Nc1cnsc1 [Example 59, (R)-6-(3-cyanopyrrolo[1,2-b]pyridazin-7-yl)-N-(2-fluoro-3-hydroxy-3-methylbutyl)-4-(isothiazol-4-ylamino)nicotinamide] | < 1 nM |  |  | 57 nM |
| COC(=O)N1CC[C@H](n2cc(Nc3cc(-c4ccc5cc(C#N)cnn45)ncc3C(=O)NC[C@@H](F)C(C)(C)O)cn2)C1 [Example 224, (S)-methyl 3-(4-((2-(3-cyanopyrrolo[1,2-b]pyridazin-7-yl)-5-(((R)-2-fluoro-3-hydroxy-3-methylbutyl)carbamoyl)pyridin-4-yl)amino)-1H-pyrazol-1-yl) pyrrolidine-1-carboxylate] | 1 nM |  |  | 75 nM |
| CNC(=O)c1cnc(-c2ccc3cc(C#N)cnn23)cc1NC1CCC(NC(=O)C(F)(F)F)CC1 (stereo not shown) [Example 275, 6-(3-cyanopyrrolo[1,2-b]pyridazin-7-yl)-N-methyl-4-(((1r,4r)-4-(2,2,2-trifluoroacetamido)cyclohexyl)amino) nicotinamide] | 3 nM |  |  | 154 nM |
| CC(=O)NC1CCC(NC(=O)c2cnc(-c3ccc4cc(C#N)cnn34)cc2N[C@H]2CC[C@H](NC(C)=O)CC2)CC1 (stereo partly drawn) [Example 301, N-((1s,4S)-4-acetamidocyclohexyl)-4-(((1r,4R)-4-acetamidocyclohexyl)amino)-6-(3-cyanopyrrolo[1,2-b]pyridazin-7-yl)nicotinamide] | 2 nM |  |  | 1410 nM |
| CC(=O)N1C[C@H]2C[C@@H](Nc3cc(-c4ccc5cc(C#N)cnn45)ncc3C(=O)NC[C@@H](F)C(C)(C)O)C[C@H]2C1 [Example 246, 4-(((3aR,5r,6aS)-2-acetyl-octahydrocyclopenta[c]pyrrol-5-yl)amino)-6-(3-cyanopyrrolo[1,2-b]pyridazin-7-yl)-N-((R)-2-fluoro-3-hydroxy-3-methylbutyl)nicotinamide] | 17 nM |  |  | 637 nM |
| CC(=O)Nc1nc(NC(=O)c2cnc(-c3ccc4cc(C#N)cnn34)cc2NC(C)C)cs1 [Example 493, N-(2-acetamidothiazol-4-yl)-6-(3-cyanopyrrolo[1,2-b]pyridazin-7-yl)-4-(isopropylamino)nicotinamide] |  |  | 12 nM | > 10000 nM |
| CC(=O)N1CC[C@H]1CNc1cc(-c2ccc3cc(C#N)cnn23)ncc1C(=O)NC[C@@H](F)C(C)(C)O [Example 889, 4-((((S)-1-acetylazetidin-2-yl)methyl)amino)-6-(3-cyanopyrrolo[1,2-b]pyridazin-7-yl)-N-((R)-2-fluoro-3-hydroxy-3-methylbutyl)nicotinamide] | 9 nM | 436 nM |  |  |
| CC(C)(O)[C@H](F)CNC(=O)c1cnc(-c2ccc3cc(C#N)cnn23)cc1N[C@H]1CCC[C@@H]1O [Example 262, 6-(3-cyanopyrrolo[1,2-b]pyridazin-7-yl)-N-((R)-2-fluoro-3-hydroxy-3-methylbutyl)-4-(((1S,2S)-2-hydroxycyclopentyl)amino)nicotinamide] | < 1 nM |  |  | 21 nM |
| CC(C)Nc1cc(-c2ccc3cc(C#N)cnn23)ncc1C(=O)NCC1CCS(=O)(=O)C1 (stereo not shown) [Example 73, 6-(3-cyanopyrrolo[1,2-b]pyridazin-7-yl)-N-((1,1-dioxidotetrahydrothiophen-3-yl)methyl)-4-(isopropylamino) nicotinamide] | 3 nM |  |  | 119 nM |
| CC(C)(O)[C@H](F)CNC(=O)c1cnc(-c2ccc3cc(C#N)cnn23)cc1N[C@H]1C[C@H](Cn2cncn2)C1 [Example 776, 4-(((1r,3R)-3-((1H-1,2,4-triazol-1-yl)methyl)cyclo-butyl)amino)-6-(3-cyano-pyrrolo[1,2-b]pyridazin-7-yl)-N-((R)-2-fluoro-3-hydroxy-3-methylbutyl) nicotinamide] |  |  | 1 nM | 32 nM |
| CC(C)(O)[C@H](F)CNC(=O)c1cnc(-c2ccc3cc(C#N)cnn23)cc1Nc1ccc(-c2cn[nH]c2)nc1 [Example 172, (R)-4-((6-(1H-pyrazol-4-yl)pyridin-3-yl)amino)-6-(3-cyanopyrrolo[1,2-b]pyridazin-7-yl)-N-(2-fluoro-3-hydroxy-3-methylbutyl) nicotinamide] | < 1 nM |  |  | 76 nM |
| COC(=O)[C@H](C)NC(=O)c1cnc(-c2ccc3cc(C#N)cnn23)cc1NC12CCC(O)(CC1)CC2 [Example 339, methyl (6-(3-cyano-pyrrolo[1,2-b]pyridazin-7-yl)-4-((4-hydroxy-bicyclo[2.2.2]octan-1-yl)amino)nicotinoyl)-L-alaninate] | 1 nM |  |  | 264 nM |
| CC(C)(O)[C@H](F)CNC(=O)c1cnc(-c2ccc3cc(C#N)cnn23)cc1Nc1cncc(C#N)c1 [Example 610, (R)-4-((5-cyanopyridin-3-yl)amino)-6-(3-cyano-pyrrolo[1,2-b]pyridazin-7-yl)-N-(2-fluoro-3-hydroxy-3-methylbutyl)nicotinamide] |  |  | < 1 nM | 50 nM |
| CC(C)(O)[C@H](F)CNC(=O)c1cnc(-c2ccc3cc(C#N)cnn23)cc1N[C@H]1C[C@H](Cn2ccnc2)C1 [Example 783, 4-(((1r,3R)-3-((1H-imidazol-1-yl)methyl)cyclo-butyl)amino)-6-(3-cyanopyrrolo[1,2-b]pyridazin-7-yl)-N-((R)-2-fluoro-3-hydroxy-3-methylbutyl)nicotinamide] |  |  | < 1 nM | 22 nM |
| CC(C)(O)[C@H](F)CNC(=O)c1cnc(-c2ccc3cc(C#N)cnn23)cc1Nc1ccc(N2CCC2)nc1 [Example 675, (R)-4-((6-(azetidin-1-yl)pyridin-3-yl)amino)-6-(3-cyanopyrrolo[1,2-b]pyridazin-7-yl)-N-(2-fluoro-3-hydroxy-3-methylbutyl)nicotinamide] |  |  | < 1 nM | 23 nM |
